Results: patent publication US4000985A, “Azo dyes having a high solubility in petroleum fuels” (Morton-Norwich Products, Inc., priority 1975, dated 1977)

Assays:
Format in all cases: physicochemical
[1] = Physical state of the isolated dye; conditions: for Physical State of Dye: after isolation according to Procedure B
Source text: alternatively, the crude liquid dye may be taken up with a volatile solvent and the solvent removed during the drying process to yield a non-volatile liquid colorant.

[2] = Rate and extent of dissolution in No. 1 and No. 2 Heating Oils at 25° C. (colorimetric); conditions: for Percent Dissolved: 25° C.
Method: The solubility properties of each of the dyes of Examples 16-41 were evaluated in the fuels No. 1 and No. 2 Heating Oils, respectively. The procedure was as follows:
Where the dyes are solid dyes, excess of pulverized solid dye, far beyond that which would dissolve, i.e., 30 to 35% dye, was added to the respective oils at 25° C. and agitated at constant speed. Samples were removed at 1, 10 and 20 minute intervals, filtered, and the amount of dissolved dye determined colorimetrically.
The tarry non-solid dyes were charged in proportions of 50-60% dye to 50-40% oil rather than 30-35% used for the solid dyes. In fact, it was very difficult to stir the tarry dye-fuel oil mixture at a dye concentration of 50%. Samples for these dyes were taken after 2 minutes. The longer initial time for the tarry dyes was to permit reasonable contact between solvent and the viscous, condensed dye.

[3] = Dissolution of 58% dye in 42% fuel by warming, cooling to 25° C. (six heating/diesel oils); conditions: 58% by weight dye, warmed, cooled to 25° C.
Method: No. 2 Regular Grade Diesel Oil
Each dye-fuel oil mixture was warmed with stirring and then cooled to 25° C.

[4] = Storage solubility in No. 1 and No. 2 Heating Oil at ambient temperature and -10° C.
Method: The resultant mixtures were stored at ambient temperatures (20° to 25° C.) and at -10° C. Where any separation of dye occurred, the dye content of the remaining solution was determined colorimetrically.

[5] = Storage solubility in xylene at 20°-25° C. and -10° C.
Method: The solutions obtained were stored at 20°-25°C. and at -10° C. Where any separation of dye occurred, the dye content of the remaining solution was determined colorimetrically.

[6] = No. 1 Fuel Oil, 1 Minute, aminoazotoluene dyes (Table 6)
[7] = No. 1 Fuel Oil, 10 Minutes, aminoazotoluene dyes (Table 6)
[8] = No. 1 Fuel Oil, 20 Minutes, aminoazotoluene dyes (Table 6)
[9] = No. 2 Fuel Oil, 1 Minute, aminoazotoluene dyes (Table 7)
[10] = No. 2 Fuel Oil, 10 Minutes, aminoazotoluene dyes (Table 7)
[11] = No. 2 Fuel Oil, 20 Minutes, aminoazotoluene dyes (Table 7)
[12] = No. 1 Fuel Oil, 1 Minute, aminoazobenzene dyes (Table 4)
[13] = No. 1 Fuel Oil, 10 Minutes, aminoazobenzene dyes (Table 4)
[14] = No. 1 Fuel Oil, 20 Minutes, aminoazobenzene dyes (Table 4)
[15] = No. 2 Fuel Oil, 1 Minute, aminoazobenzene dyes (Table 5)
[16] = No. 2 Fuel Oil, 10 Minutes, aminoazobenzene dyes (Table 5)
[17] = No. 2 Fuel Oil, 20 Minutes, aminoazobenzene dyes (Table 5)

| SMILES | Physical State of Dye [1] | Percent Dissolved [2, 6] | Percent Dissolved [2, 7] | Percent Dissolved [2, 8] | Percent Dissolved [2, 9] | Percent Dissolved [2, 10] | Percent Dissolved [2, 11] | Percent Dissolved [2, 12] | Percent Dissolved [2, 13] | Percent Dissolved [2, 14] | Percent Dissolved [2, 15] | Percent Dissolved [2, 16] | Percent Dissolved [2, 17] | further results |
| --- | --- | --- | --- | --- | --- | --- | --- | --- | --- | --- | --- | --- | --- | --- |
| CCCCCCCCCCCCNc1ccc2ccccc2c1N=Nc1ccc(N=Nc2ccccc2C)cc1C [Example 41] | Solid | 3.29% | 4.04% | 4.50% | 4.48% | 4.68% | 5.21% | – | – | – | – | – | – | – |
| CCCCCCCCCCCCNc1ccc2ccccc2c1N=Nc1ccc(N=Nc2ccccc2)cc1 [Example 28] | Solid | – | – | – | – | – | – | 2.85% | 4.60% | 5.38% | 7.46% | 8.17% | 9.06% | – |
| CCOCCOCCCNc1ccc2ccccc2c1N=Nc1ccc(N=Nc2ccccc2C)cc1C [Example 35] | Solid | 5.33% | 6.23% | 7.40% | 3.70% | – | 3.97% | – | – | – | – | – | – | – |
| CCNc1ccc2ccccc2c1N=Nc1ccc(N=Nc2ccccc2)cc1 [Example 16] | Solid | – | – | – | – | – | – | 1.05% | 1.36% | 1.48% | 1.49% | 1.64% | 1.78% | – |
| CCCCC(CC)CNc1ccc2ccccc2c1N=Nc1ccc(N=Nc2ccccc2)cc1C (stereo not shown) [Example 3] | – | – | – | – | – | – | – | – | – | – | – | – | – | behavior of dye-fuel oil mixture on cooling/storage [3]: completely soluble and remained soluble at temperatures ranging from -10 °C to 25 °C; Physical State of Dye at 20° C. ([1]; 20° C.): Liquid; Solubility (% by Wt.) ([4]; No. 1 Heating Oil, 20° C.-25° C. (Table 8)): Complete; Solubility (% by Wt.) ([4]; No. 1 Heating Oil, -10° C. (Table 8)): Complete; Solubility (% by Wt.) ([4]; No. 2 Heating Oil, 20° C.-25° C. (Table 9)): Complete; Solubility (% by Wt.) ([4]; No. 2 Heating Oil, -10° C. (Table 9)): Complete; Solubility (% by Wt.) ([5]; 20° C.-25° C. (Table 12)): Complete; Solubility (% by Wt.) ([5]; -10° C. (Table 12)): Complete |
| CCCCCCNc1ccc2ccccc2c1N=Nc1ccc(N=Nc2ccccc2C)cc1C [Example 33] | Solid | 1.31% | 1.28% | 1.27% | 0.93% | 1.01% | 1.11% | – | – | – | – | – | – | – |
| COCCCNc1ccc2ccccc2c1N=Nc1ccc(N=Nc2ccccc2)cc1 [Example 18] | Solid | – | – | – | – | – | – | 2.02% | 3.15% | 3.57% | 0.66% | 0.68% | 0.73% | – |
| CCCCCCNc1ccc2ccccc2c1N=Nc1ccc(N=Nc2ccccc2)cc1 [Example 20] | Solid | – | – | – | – | – | – | 4.65% | 4.47% | 4.35% | 5.12% | 5.12% | 5.27% | – |
| CCCCNc1ccc2ccccc2c1N=Nc1ccc(N=Nc2ccccc2C)cc1C [Example 30] | Solid | 0.19% | 0.26% | 0.26% | 0.27% | 0.29% | 0.35% | – | – | – | – | – | – | – |
| CCCCCCCNc1ccc2ccccc2c1N=Nc1ccc(N=Nc2ccccc2)cc1 [Example 23] | Solid | – | – | – | – | – | – | 4.92% | 7.83% | 7.56% | 7.11% | 8.10% | 8.90% | – |
| CCOCCOCCCNc1ccc2ccccc2c1N=Nc1ccc(N=Nc2ccccc2)cc1 [Example 22] | – | – | – | – | – | – | – | 3.68% | – | 3.68% | 0.57% | 0.58% | 0.61% | solubility in fuel oils (in words) ([2]; No. 1 and No. 2 fuel oils): low solubility in both fuels much like that of a solid dye |
| OCCOCCNc1ccc2ccccc2c1N=Nc1ccc(N=Nc2ccccc2)cc1 [Example 19] | Solid | – | – | – | – | – | – | 0.06% | 0.06% | 0.06% | 0.14% | 0.17% | 0.21% | – |
| Cc1ccccc1N=Nc1ccc(N=Nc2c(NCCOCCO)ccc3ccccc23)c(C)c1 [Example 32] | Solid | 0.09% | 0.12% | 0.13% | 0.20% | 0.15% | 0.15% | – | – | – | – | – | – | – |
| CCCCCCCCNc1ccc2ccccc2c1N=Nc1ccc(N=Nc2ccccc2C)cc1C [Example 37] | Solid | 1.38% | 1.39% | 1.78% | 2.26% | 2.89% | 2.69% | – | – | – | – | – | – | – |
| Cc1ccccc1N=Nc1ccc(N=Nc2c(NC3CCCCC3)ccc3ccccc23)c(C)c1 [Example 34] | Solid | 0.82% | 0.87% | 0.94% | 0.99% | 1.05% | 1.09% | – | – | – | – | – | – | – |
| COCCCNc1ccc2ccccc2c1N=Nc1ccc(N=Nc2ccccc2C)cc1C [Example 31] | Solid | 0.58% | 0.57% | 0.58% | 2.96% | 4.21% | 4.96% | – | – | – | – | – | – | – |
| CCCCCCCCNc1ccc2ccccc2c1N=Nc1ccc(N=Nc2ccccc2)cc1 [Example 24] | Solid | – | – | – | – | – | – | 12.05% | 7.26% | 5.96% | 5.48% | 6.25% | 6.25% | – |
| CCCCCCCCCCNc1ccc2ccccc2c1N=Nc1ccc(N=Nc2ccccc2C)cc1C [Example 39] | Solid | 1.09% | 1.13% | 1.14% | 1.30% | 1.37% | 1.48% | – | – | – | – | – | – | – |
| CCCCCCCCCCNc1ccc2ccccc2c1N=Nc1ccc(N=Nc2ccccc2)cc1 [Example 26] | Solid | – | – | – | – | – | – | 4.97% | 5.12% | 5.63% | 6.36% | 7.25% | 8.14% | – |
| c1ccc(N=Nc2ccc(N=Nc3c(NC4CCCCC4)ccc4ccccc34)cc2)cc1 [Example 21] | Solid | – | – | – | – | – | – | 4.01% | 2.25% | 2.30% | 3.10% | 3.10% | 3.21% | – |
| CCCCCCCNc1ccc2ccccc2c1N=Nc1ccc(N=Nc2ccccc2C)cc1C [Example 36] | Solid | 1.42% | 1.56% | 1.65% | 1.77% | 2.27% | 2.59% | – | – | – | – | – | – | – |
| CCNc1ccc2ccccc2c1N=Nc1ccc(N=Nc2ccccc2C)cc1C [Example 29] | Solid | 0.24% | 0.32% | 0.37% | 0.29% | 0.37% | 0.39% | – | – | – | – | – | – | – |
| CCCCNc1ccc2ccccc2c1N=Nc1ccc(N=Nc2ccccc2)cc1 [Example 17] | Solid | – | – | – | – | – | – | 1.99% | 1.79% | 1.57% | 1.83% | 2.03% | 2.12% | – |
